Values after ≈ are worked out from the molar mass of the structure shown. Square brackets hold non-standard residues; d marks the D form. Peptide text beside a SMILES is read from it. Nspe = C[C@H](NCC(=O)O)c1ccccc1; Nlys = NCCCCNCC(=O)O

For data set [1], the system named is erythrocytes. Kind of data set: Hemolytic activity (HD10/HD50). The data set is classed as cell-based. The following applies: erythrocytes. An excerpt:
Table 1 Characteristics of antimicrobial peptoids, screened for activity against B. subtilis and E. coli bacterial strains. | column: HD10 / HD50

Data set [2] relates to E. coli 63103 (ESBL). The data set can be described thus: microbe, parasite or virus in culture. The following applies: E. coli 63103 (ESBL). In outline:
(§1)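 Modified broth microdilution in Mueller Hinton medium, polypropylene plates; agents serially diluted in 0.01% acetic acid with 0.2% BSA. Inoculum 2–7 x 10^5 CFU/mL from overnight culture, incubated overnight at 37°C. MIC taken as lowest concentration with no visible growth.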

For data set [3], the system named is E. coli 64771 (ESBL). Kind of data set: microbe, parasite or virus in culture. The note with it: E. coli 64771 (ESBL). In outline: as §1
The test system of data set [4] is E. faecalis F43559 (VRE). Kind of data set: microbe, parasite or virus in culture. The following applies: E. faecalis F43559 (VRE). The essentials: as §1
In data set [5] the test system is K. pneumonia 61962 (ESBL). The data set can be described thus: microbe, parasite or virus in culture. The following applies: K. pneumonia 61962 (ESBL). In outline: as §1
Data set [6] has as its system P. aeruginosa 198 (MDR). Kind of data set: microbe, parasite or virus in culture. The following applies: P. aeruginosa 198 (MDR). The essentials: as §1
Data set [7] deals with P. aeruginosa H1027 (MDR). Kind of data set: microbe, parasite or virus in culture. The note with it: P. aeruginosa H1027 (MDR). In outline:
as §1

The subject of data set [8] is P. aeruginosa H1030 (MDR). Kind of data set: microbe, parasite or virus in culture. The note with it: P. aeruginosa H1030 (MDR). The essentials: as §1
Data set [9] is described as follows: Acute toxicity screen in healthy mice. The following applies: three healthy mice, 4 mg/kg (100 μg per mouse) intraperitoneally. The data set is classed as in vivo. Here is the method:
This dosage was selected to be on the conservative end of the dosage range typically evaluated for AMPs (1 mg/kg to 24 mg/kg) in other animal studies. To screen for acute signs of toxicity, three healthy mice were injected intraperitoneally with 4 mg/kg (100 μg per mouse) of peptoid 1, and a second control group with an equivalent volume of saline.

With `C[C@@H](c1ccccc1)N(CC(N)=O)C(=O)CN(C(=O)CN(CCCCN)C(=O)CN(C(=O)CN(C(=O)CN(CCCCN)C(=O)CN(C(=O)CN(C(=O)CN(CCCCN)C(=O)CN(C(=O)CN(C(=O)CNCCCCN)[C@@H](C)c1ccccc1)[C@@H](C)c1ccccc1)[C@@H](C)c1ccccc1)[C@@H](C)c1ccccc1)[C@@H](C)c1ccccc1)[C@@H](C)c1ccccc1)[C@@H](C)c1ccccc1` [Peptoid 1, H-(NLys-Nspe-Nspe)4-NH2] (H-[Nlys][Nspe][Nspe][Nlys][Nspe][Nspe][Nlys][Nspe][Nspe][Nlys][Nspe][Nspe]-NH2), the “HD10 (hemolytic activity)” value in data set [1] (first value of HD10 / HD50 cell) was found to be 21. In addition, the “HD50 (hemolytic activity)” value in [1] (second value of HD10 / HD50 cell) came out at 100. For the same molecule, the MIC in data set [2] was 2 µg/mL (≈ 1.1 µM); in [3], 2 µg/mL (≈ 1.1 µM); in [4], 4 µg/mL (≈ 2.2 µM); in data set [5], 4 µg/mL (≈ 2.2 µM); in data set [6], 4 µg/mL (≈ 2.2 µM); in data set [7], 2 µg/mL (≈ 1.1 µM). In [8], this molecule returned an MIC of 4 µg/mL (≈ 2.2 µM). Also, in data set [9], the “acute signs of toxicity, 24 hours post-injection observation” value was “all mice appeared to be healthy and exhibited normal activity and no weight loss or abject morbidity”.

The values above are taken from PMC4744035, “In Vivo, In Vitro, and In Silico Characterization of Peptoids as Antimicrobial Agents” (PLoS ONE, 2016).
